Measurements: BindingDB's records for patent US20250011311 (Astrazeneca, 2025)

Target: T1, 17-beta-hydroxysteroid dehydrogenase 13 (Homo sapiens, UniProt Q7Z5P4)
T1 sequence (Q7Z5P4 whole entry): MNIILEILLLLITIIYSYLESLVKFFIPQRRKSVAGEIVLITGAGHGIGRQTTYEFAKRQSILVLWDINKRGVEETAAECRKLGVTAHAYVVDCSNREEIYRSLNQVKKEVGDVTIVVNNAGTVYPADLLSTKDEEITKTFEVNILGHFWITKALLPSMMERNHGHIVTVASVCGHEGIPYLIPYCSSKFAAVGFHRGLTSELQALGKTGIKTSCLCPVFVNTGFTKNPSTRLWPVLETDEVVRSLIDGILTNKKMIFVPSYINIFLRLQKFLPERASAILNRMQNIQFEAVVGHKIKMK
Experiment: In Vitro 17bHSD13 Enzyme Assay
Method: Final assay conditions were 80 nM of 17bHSD13, 0.5 mM of NAD, 20 μM Estradiol and various concentrations of compound in buffer (5 mM EDTA (TEKNOVA E0306), 0.01% DDM (AFFYMETRIX D310) in 50 mM Tris-Cl, pH 7.4). After 2.5 h the reaction were stopped by addition of 20 μl of 0.6% Formic acid (MERCK 5.33002) and samples were analyzed using LC-MS/MS.SCIEX LC-MS/MS system: Sample was injected with CTC analytical injector, SHIMATZU LC pumps LC20 and analyzed on the SCIEX API 5000 LCMSMS system with the following settings. Samples were chromatographed on a WATERS, […], C8, 3.5 μm, 2.1×50 mm) column at constant flow rate of 0.5 mL/min. The mobile phases consist of A (water with 0.2% formic acid) and B (acetonitrile with 0.2% formic acid). The LC gradient profile is as follows: 50% B during 0 to 0.5 min, a linear increase to 100% B during 0.5 to 1 min, hold at 100% B during 1 to 1.6 min then back to 50% B from 1.6 to 2 min. The run time was 2 min with retention times of approximately 0.8 and 1.07 min for Estradiol and Estrone, respectively. Detection was performed on a API 5000 LC/MS/MS system with a triple quadrupole mass spectrometer, a TURBO V ion source, in multiple reaction monitoring (MRM) mode at positive polarity with APCI probe. The MRM pairs were m/z 273.1 to m/z 107.0 and m/z 271.3 to 107.0. for Estradiol and Estrone, respectively.

IC50: 0.151 µM
Compound: CN(C(=O)c1noc(-c2cc(F)c(F)c(O)c2F)n1)c1cccc(C#N)c1 [US20250011311, Example 63]
